Legend:
[1] = test system: IL-6 mRNA; assay: LPS-dependent IL-6 mRNA in THP-1-derived macrophages (RT-PCR); format: cell-based, human; settings: 50 µM, 10 ng/ml LPS 6 h
Description: F i g u re S3: Eff ect of benzofuran compounds on the lev els of LP S -dependent mRNA of CCL2 and IL-6 in THP-1 –deriv ed macrophages. Human-monoc yti c cell l ine-THP-1 wer e treat ed with PMA (25 nM for 48 hours) th en in cub ated with 50 μM compounds for 30 minutes b efo re the addit ion of 10 ng/ml LP S fo r 6 hours. Gene ex pression of IL6 and CCL2 were measur ed by RT-PCR and the v alu es wer e nor mal ized to GAPDH. Results represent means ± SEM by one way ANOVA followed by Dunnett test.

[2] = test system: CCL2; assay: CCL2 release in LPS-treated macrophages (BMDM); format: cell-based, C57BL/6J mice; settings: for effect on CCL2 secretion: 10 µM for compound 1, 50 µM for others, LPS 24 h; for IC50: Mus musculus, Macrophage, compounds 30 min prior to 10 ng/mL LPS for 24 h
Description: C57BL/6J (10–15 weeks old) male mice were obtained from the animal care facility at the American University of Beirut. All animal procedures were performed following the recommendations of the IACUC (Institutional Animal Care and Use Committee approval 16-09-M379). BMDMs were prepared and characterized as described previously by our group. BMDMs were isolated from C57BL/6J mice by flushing the femur and tibia with RPMI-1640 culture media (Sigma-Aldrich R7388), and cells were collected and centrifuged at 300× g for 5 min. The supernatant was discarded, and the pellet was resuspended in 2 mL red blood lysis 10% (Sigma-Aldrich R7767) medium in PBS and incubated for 5 min at room temperature. After diluting the suspension of cells with 5 mL of RPMI containing 10% FBS and 1% penicillin–streptomycin, cells were centrifuged at 300× g for 5 min, and the cell pellet was resuspended in RPMI media containing 10% FBS supplemented with 15% L929-conditioned medium containing macrophage-colony stimulating factor (M-CSF1) and plated on […]. Cells were allowed to proliferate and differentiate for 5–6 days. Cells were harvested, washed, and allowed to adhere overnight in RPMI containing 10% FBS for treatment. Cells were previously characterized by flow cytometry as macrophages using this method. […] Cells were plated at 0.8 × 10^6 cells per 3.8 cm^2 well [27].
BMDMs were then treated with different concentrations of the benzofuran and dihydrobenzofuran derivatives for 30 min prior to the addition of 10 ng/mL LPS for 24 h. […] The supernatants were assessed for IL-6, PGE2, CCL2, and nitrite, the stable derivative of NO, as described previously.
IL-6, CCL2, nitrite (for NO), and PGE2 concentrations from 3–5 independent experiments were expressed as percentage of LPS alone and as mean ± SEM. COX activity was determined as percentage of PGE2 produced from exogenous arachidonic acid. Curve fitting and calculation of IC50 values were performed using GraphPad Prism (version 9.5.1 Software, La Jolla, CA, USA).

[3] = test system: zymosan-induced air pouch inflammation; assay: Subcutaneous zymosan-induced air pouch model of inflammation; format: in vivo, C57BL/6J mice; settings: 50 nmol per pouch co-injected with 1% zymosan, 24 h
Description: Figure 5 Effect of fluorinated benzofuran and dihydrobenzofuran on inflammation in the zymosan-treated sterile air pouch model in mice. (A) A timeline for the zymosan-induced inflammation experiments of the air pouch model in C57/BL6 mice. The pouch was formed on day 1 and refilled on day 4 with sterile air. Mice were injected at day 6 with 1% zymosan (w/v in saline), or 0.5 mL of saline for control mice. An amount of 50 nmol of compounds 2, 3, 5, and 6, or vehicle, were co-injected into the air pouch. At 24 h post-treatment, exudates were collected. (B) Recruited cells in the pouch and PGE2 production. (C) Gene expressions of inflammatory enzymes Ptgs2 and Nos2, proinflammatory cytokines Il1α and Il1β, and chemokines Ccl3 and Ccl4. Data correspond to the mean ± SEM (n = 6–8 mice per group); * p < 0.05 compared to the zymosan-treated cells (one-way ANOVA followed by Dunnett’s test).
C57BL/6J female mice (8-week-old, 20–25 g) were kept at 5 per cage on a 12 h light–dark cycle with cotton cocoon as enrichment in temperature- and humidity-controlled rooms. Mice were provided with food and water ad libitum, and food intake and body weight were monitored throughout the study period. Approval for use of animals was obtained from the IACUC (16-11-393). Dorsal air pouches were created in mice as previously described. Six days after the initial injection of sterile air, 0.5 mL of saline containing 100 µM of benzofuran compounds 2, 3, 5, or 6 (50 nmol per pouch) or 0.2% DMSO as vehicle was co-injected in the pouch with 0.5 mL of 0.9% saline (for the control group) or 0.5 mL of 1% zymosan (w/v, for zymosan and zymosan + compound) (Sigma-Aldrich, 400140). At 24 h after treatment, the animals were sacrificed by CO2 inhalation and the air pouch washed, the exudates collected, and the cell number determined. As previously reported, the main subtype of leukocytes present in the air pouch were neutrophils (75%) and monocytes–macrophages (12–15%), as determined by selective flow cytometry. The concentrations of PGE2, CCL2, and IL-6 and the gene expression were assessed as described previously.
For gene expression, RT-PCR was performed as described previously. Briefly, cell pellets obtained by centrifugation of air pouch exudates at 300× g for 5 min at 4 °C were suspended in TriPure (Sigma Aldrich 11667165001). An amount of 2 μg of total RNA was reverse-transcribed using iScript cDNA synthesis kit (Bio-Rad Laboratories, 1708891). RT-PCR was carried out on CFX384 cycler using iTaq Universal SYBR Green Supermix kit (Bio-Rad Laboratories, 1725121) and the primers obtained from TIB Molbiol (Berlin, Germany). Oligonucleotide sequences were according to the references, except for Ptgs2 and Nos2, which were as follows: Ptgs2 (F): […]; Ptgs2 (R): […]; Nos2 (F): […]; Nos2 (R): […]. Gene expression was calculated using ^ΔΔCT method relative to the housekeeping gene 18S.

SMILES	effect on IL-6 mRNA levels [1]	effect on CCL2 secretion [2]	IC50 [2]	IL-6 production in air pouch, ELISA [3]	PGE2 levels in air pouch exudates [3]	number of cells of the air pouch exudates [3]	gene expression of proinflammatory genes (Il1a, Il1b, Ccl3, Ccl4, Ptgs2, Nos2) in air pouch cells ([3]; RT-PCR)	CCL2 formation in air pouch, ELISA [3]	expression of Ccl4 in air pouch cells ([3]; RT-PCR)
COC(=O)/C=C1/Oc2ccc(Br)cc2C1(F)F [Compound 1]	decreased significantly	moderate effect	8 µM						
O=C(O)/C=C1/Oc2ccc(Br)cc2C1(F)F [Compound 2]	decreased significantly	significant decreases	1.52 µM	inhibited	inhibited	significantly reduced	strong inhibition		
O=C(O)/C=C1\Oc2ccc(Br)cc2C1(F)F [Compound 3]	to a lesser extent	significant decreases	1.5 µM		inhibited	significantly reduced		inhibited	modestly inhibited
O=C(O)Cc1oc2ccc(-c3ccccc3)cc2c1F [Compound 5]						significantly reduced		inhibited	
C=C(C)c1ccc2oc(CC(=O)O)c(F)c2c1 [Compound 6]				inhibited	inhibited	significantly reduced		inhibited	modestly inhibited
COC(=O)CC1(O)Oc2ccc(Br)cc2C1(F)F (centres unmarked) [Compound 8]		significant decreases	19.3 µM						
